# Reference: patent US7888332B2, “Hydrazide-containing CFTR inhibitor compounds and uses thereof” (The Regents of the University of California, priority 2004, dated 2011)
# Like-named read-outs stand apart in the source and are kept apart here.
# Key:
# [1] = system: cholera toxin-induced intestinal fluid secretion; set-up: species or system mice; conditions: mouse, in vivo
# [2] = target: T1, CFTR (cAMP-stimulated short-circuit current) in T84 cells (Homo sapiens, UniProt P13569); experiment: Short-circuit current in non-permeabilized T84 cells; type: cell-based
# T1 construct: endogenous in cells; host or cells: T84 colon epithelial cells
# Procedure: (§1) The efficacy of GlyH-101 in inhibiting cAMP/cholera toxin-induced intestinal fluid secretion was also evaluated. Short-circuit current experiments were done in different cell types and in intact mouse ileum under non-permeabilized conditions and in the absence of a Cl^− gradient. In each case CFTR was activated by CPT-cAMP after ENaC inhibition by amiloride. […] Inhibition was ˜100% at higher GlyH-101 concentrations. Cholera toxin-induced intestinal fluid secretion was measured in an in vivo closed-loop model in which loops for each mouse were injected with saline (control), cholera toxin (1 μg), or cholera toxin (1 μg)+GlyH-101 (0.25 μg). GlyH-101 was added to the lumen (rather than systemically) based on initial studies showing poor intestinal absorption and little effect of systemically administered compound. Compared to the saline control, the cholera toxin-induced increase in fluid secretion over 4 hours, quantified from loop weight-to-length ratio, was 80% reduced by GlyH-101.
# [3] = target: T2, CFTR (cAMP-stimulated short-circuit current) in mouse ileum (Mus musculus, UniProt P26361); experiment: Short-circuit current in intact mouse ileum
# T2 construct: from tissue; host or cells: isolated mouse ileal segments in a micro-Ussing chamber
# Procedure: as §1
# [4] = target: upper airway CFTR Cl− conductance (Mus musculus, UniProt P26361); experiment: Nasal potential difference measurements in mice
# [5] = target: T3, CFTR (Homo sapiens, UniProt P13569); experiment: Cell-based YFP fluorescence assay of iodide influx after CFTR activation (screening); set-up: expressed in transfected cells; host or cells: Fisher Rat Thyroid (FRT) cells, stably transfected
# Procedure: Screening was performed using an integrated system (Beckman) consisting of a 3-meter robotic arm, CO2 incubator, plate washer, liquid handling work station, barcode reader, delidding station, plate sealer and two fluorescence plate readers (Optima, BMG Lab Technologies), each equipped with two syringe pumps and HQ500/20X (500±10 nm) excitation and HQ535/30M (535±15 nm) emission filters (Chroma).
# One hundred thousand small molecules (most 350-550 daltons) were selected for screening from commercial sources (ChemBridge and ChemDiv, both of San Diego, Calif.) using algorithms designed to maximize chemical diversity and drug-like properties. The compounds were obtained as a dried powder and solutions were made in DMSO just before testing, stored frozen as 2.5 mM stock solutions for further use.
# For screening, cells in 96-well plates were washed three times and then CFTR halide conductance was activated by incubation for 15 minutes with an activating cocktail containing 10 μM forskolin, 20 μM apigenin and 100 μM isobutylmethyl-xanthine (IBMX). Test compounds (final 25 μM) were added 5 minutes prior to assay of iodide influx in which cells were exposed to a 100 mM inwardly-directed iodide gradient. YFP fluorescence was recorded for 2 seconds prior to and 12 seconds after creation of the iodide gradient. Initial rates of iodide influx were computed from the time course of decreasing fluorescence after the iodide gradient (Yang et al., J. Biol. Chem., 35079-35085, 2003).
# A collection of 100,000 small, drug-like compounds was screened to identify new CFTR inhibitors. As diagrammed in FIG. 1A, compounds were screened at 25 μM in a cell-based assay of iodide influx after CFTR activation by an agonist mixture containing forskolin, IBMX and apigenin. Initial rates of iodide influx were computed from the kinetics of fluorescence decrease following chloride replacement by iodide. Four compounds (FIG. 1B) reducing iodide influx by greater than 50% were identified, which were not related structurally to known CFTR activators or inhibitors.
# [6] = Initial studies of GlyH-101 intestinal absorption and systemic administration; type: in vivo
# Procedure: as §1
# [7] = target: T3, CFTR; experiment: Short-circuit current (apical Cl− current) analysis on permeabilized CFTR-expressing FRT cells
# [8] = Spectrophotometric pH titration (pKa); type: physicochemical
# Procedure: FIG. 5A is a graph illustrating the pH-dependent absorbance changes (right panel) of the chemical compounds (10 μM) (corresponding chemical structures, left panel) in NaCl (100 mM) containing MES, HEPES, boric acid, and citric acid (each 10 mM) titrated to different pH using HCl/NaOH. Absorbance changes measured at analytical wavelengths of 346, 348, 346, and 236 nm (top to bottom).
# [9] = Water solubility
# [10] = target: T4, CFTR (cAMP-stimulated short-circuit current) in human airway cells (Homo sapiens, UniProt P13569); experiment: Short-circuit current in human airway (primary human bronchial) cells; type: cell-based; conditions: primary human bronchial cell cultures
# T4 construct: endogenous in cells; host or cells: primary human bronchial epithelial cell cultures
# Procedure: as §1
# [11] = CPT-cAMP after amiloride, read-out: Ki for inhibition of cAMP-stimulated short-circuit current
# [12] = after GlyH-101 addition (10 μM)
# upper airway CFTR Cl− conductance, sequence (P26361 whole entry): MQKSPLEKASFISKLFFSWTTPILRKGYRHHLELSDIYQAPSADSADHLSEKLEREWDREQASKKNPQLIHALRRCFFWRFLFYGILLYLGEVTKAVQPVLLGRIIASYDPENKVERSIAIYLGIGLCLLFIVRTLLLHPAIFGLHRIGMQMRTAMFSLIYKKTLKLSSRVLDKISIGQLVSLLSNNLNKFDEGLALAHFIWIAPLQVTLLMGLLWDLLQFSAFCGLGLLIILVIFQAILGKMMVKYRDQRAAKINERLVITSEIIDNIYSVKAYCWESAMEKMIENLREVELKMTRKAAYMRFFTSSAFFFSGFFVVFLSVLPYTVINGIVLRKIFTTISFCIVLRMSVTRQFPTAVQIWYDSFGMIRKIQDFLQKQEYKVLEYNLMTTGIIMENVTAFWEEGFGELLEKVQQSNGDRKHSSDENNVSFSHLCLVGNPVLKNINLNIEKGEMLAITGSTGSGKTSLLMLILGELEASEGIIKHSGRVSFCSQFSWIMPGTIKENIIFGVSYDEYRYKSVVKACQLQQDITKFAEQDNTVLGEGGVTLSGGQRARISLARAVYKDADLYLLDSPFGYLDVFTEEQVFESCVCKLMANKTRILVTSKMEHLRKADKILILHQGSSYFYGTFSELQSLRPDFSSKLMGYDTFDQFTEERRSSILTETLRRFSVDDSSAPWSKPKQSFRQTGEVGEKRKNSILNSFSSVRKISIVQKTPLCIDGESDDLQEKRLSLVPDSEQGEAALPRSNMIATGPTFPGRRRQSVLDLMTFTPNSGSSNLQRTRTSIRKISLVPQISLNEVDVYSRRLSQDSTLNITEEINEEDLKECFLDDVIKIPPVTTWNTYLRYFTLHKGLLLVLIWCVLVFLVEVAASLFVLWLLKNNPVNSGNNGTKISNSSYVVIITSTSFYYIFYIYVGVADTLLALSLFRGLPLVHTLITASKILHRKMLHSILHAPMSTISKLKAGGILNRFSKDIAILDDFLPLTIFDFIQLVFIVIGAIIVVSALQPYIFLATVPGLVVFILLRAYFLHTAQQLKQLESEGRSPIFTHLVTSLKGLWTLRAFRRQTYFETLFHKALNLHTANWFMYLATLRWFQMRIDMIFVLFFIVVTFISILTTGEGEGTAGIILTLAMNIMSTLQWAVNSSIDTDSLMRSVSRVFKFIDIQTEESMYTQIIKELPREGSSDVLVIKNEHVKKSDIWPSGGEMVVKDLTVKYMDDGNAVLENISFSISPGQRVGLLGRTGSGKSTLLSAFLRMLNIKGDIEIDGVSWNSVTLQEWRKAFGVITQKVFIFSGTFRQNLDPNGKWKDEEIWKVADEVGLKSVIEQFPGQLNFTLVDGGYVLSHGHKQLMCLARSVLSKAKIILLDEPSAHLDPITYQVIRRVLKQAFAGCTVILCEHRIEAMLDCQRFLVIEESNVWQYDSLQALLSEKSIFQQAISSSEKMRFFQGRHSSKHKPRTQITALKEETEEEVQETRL
# T3 sequence (P13569 whole entry): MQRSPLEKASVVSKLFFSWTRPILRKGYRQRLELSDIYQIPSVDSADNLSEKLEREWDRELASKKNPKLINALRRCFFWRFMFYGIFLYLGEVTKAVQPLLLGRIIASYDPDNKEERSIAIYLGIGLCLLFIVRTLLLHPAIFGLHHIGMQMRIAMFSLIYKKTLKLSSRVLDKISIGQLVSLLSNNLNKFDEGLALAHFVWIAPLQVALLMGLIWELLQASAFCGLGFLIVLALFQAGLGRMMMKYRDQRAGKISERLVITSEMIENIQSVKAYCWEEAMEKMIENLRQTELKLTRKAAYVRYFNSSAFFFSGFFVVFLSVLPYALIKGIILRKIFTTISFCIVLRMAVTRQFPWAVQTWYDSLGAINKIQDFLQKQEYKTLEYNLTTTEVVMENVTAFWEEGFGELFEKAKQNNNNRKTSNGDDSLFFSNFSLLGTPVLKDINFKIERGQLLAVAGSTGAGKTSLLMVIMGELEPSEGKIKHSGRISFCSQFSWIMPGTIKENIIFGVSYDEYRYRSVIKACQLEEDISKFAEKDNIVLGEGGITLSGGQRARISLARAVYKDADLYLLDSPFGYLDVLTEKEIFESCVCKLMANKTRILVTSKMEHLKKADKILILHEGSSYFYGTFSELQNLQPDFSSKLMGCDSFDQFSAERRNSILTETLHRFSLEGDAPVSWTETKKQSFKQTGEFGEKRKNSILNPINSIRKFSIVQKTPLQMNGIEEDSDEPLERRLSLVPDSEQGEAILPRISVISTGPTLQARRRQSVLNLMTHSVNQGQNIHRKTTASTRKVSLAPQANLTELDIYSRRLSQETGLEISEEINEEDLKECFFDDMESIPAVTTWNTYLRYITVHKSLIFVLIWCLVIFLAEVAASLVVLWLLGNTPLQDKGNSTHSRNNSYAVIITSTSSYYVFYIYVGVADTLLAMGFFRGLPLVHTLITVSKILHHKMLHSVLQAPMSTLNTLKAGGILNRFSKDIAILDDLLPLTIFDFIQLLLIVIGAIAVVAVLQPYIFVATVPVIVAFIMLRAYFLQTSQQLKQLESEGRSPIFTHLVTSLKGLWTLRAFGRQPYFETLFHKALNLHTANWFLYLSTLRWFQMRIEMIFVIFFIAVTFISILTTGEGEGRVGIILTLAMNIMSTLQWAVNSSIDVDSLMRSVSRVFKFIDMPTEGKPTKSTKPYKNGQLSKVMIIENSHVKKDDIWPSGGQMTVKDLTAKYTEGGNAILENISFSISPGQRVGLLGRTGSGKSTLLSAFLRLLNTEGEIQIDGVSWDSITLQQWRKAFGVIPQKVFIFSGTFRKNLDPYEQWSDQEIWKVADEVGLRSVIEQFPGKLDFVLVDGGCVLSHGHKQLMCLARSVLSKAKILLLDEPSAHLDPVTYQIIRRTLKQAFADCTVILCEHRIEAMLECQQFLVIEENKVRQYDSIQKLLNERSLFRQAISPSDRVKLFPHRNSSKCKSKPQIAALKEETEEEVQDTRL
# T2 sequence (P26361 whole entry): as the sequence (P26361 whole entry) above
# T1 sequence (P13569 whole entry): as the sequence (P13569 whole entry) above
# T4 sequence (P13569 whole entry): as above
smiles,measurement,setting,value
"O=C(CNc1ccc2ccccc2c1)NN=Cc1cc(Br)c(O)c(Br)c1O [GlyH-101, N-2-napthalenyl-[(3,5-dibromo-2,4-dihydroxyphenyl)methylene]glycine hydrazide]",reduction of cholera toxin-induced increase in fluid secretion (loop weight-to-length ratio),[1],80%
same,Inhibition at higher concentrations,[2],~100%
same,Ki,[2]; [11],~5 µM
same,Inhibition at higher concentrations,[3],~100%
same,Ki,[3]; [11],~5 µM
same,"PD change (ΔPD), paired analysis",[4]; after ˜4 mV hyperpolarization by forskolin,depolarization of similar magnitude
same,inhibition of forskolin-induced hyperpolarization,[4]; compound in all solutions (10 μM),substantial inhibition
same,effect on forskolin-induced hyperpolarization of nasal PD,"[4]; topical in perfusate, 10 μM",rapidly reversed
same,CFTR inhibition after activation by different types of agonists,"[5]; 50 μM GlyH-101, agonists 50 μM incl. CFTRact-01, 08, 10",effective CFTR inhibition
same,time of further inhibition,[5]; [12],~1 min
same,time within which 50% of the inhibition occurred,[5]; [12],≤ 1 s
same,reversal of inhibition after washout,[5]; washout,complete reversal
same,reversal of inhibition over 5 minutes after washout,"[5]; washout, 5 minutes",> 75%
same,effect of systemically administered compound,[6],little effect
same,intestinal absorption,[6],poor
same,% inhibition at 50 μM,"[7]; Table 1, Group I, 50 μM",95%
same,Ki,"[7]; Table 1, Group I, concentration giving 50% inhibition of CFTR Cl− conductance",5 µM
same,pH dependence of Ki for inhibition of CFTR Cl− current,[7]; pH range 6-8,independent of pH
same,Ki,"[7]; read-out: Ki of screening hits, dose-response measurements, confirmed by short-circuit current analysis",~5 µM
same,"pKa, first (para) phenolic hydroxyl",[8],~5.5
same,"pKa, second ortho hydroxyl",[8],~8.5
same,"pKa, secondary amine",[8],~4.7
same,ionic form,[8]; pH between 6 and 8,singly charged anion
same,water solubility compared to CFTRinh-172,[9],50 fold
same,water solubility,"[9]; in water, 22° C., pH 6-8",800 to 1300 µM
same,Inhibition at higher concentrations,[10],~100%
same,Ki,[10]; [11],~5 µM
